Consider 1 compound from patent US10899736B2, “Processes and intermediates for making a JAK inhibitor” (Incyte Corporation, priority 2018, dated 2021).

As usually defined, the IC50 is the midpoint of a concentration-inhibition curve. Read a high IC50 as weaker potency.

The assay has as its target T1, human JAK1 (a.a. 837-1142) catalytic domain (Homo sapiens, UniProt P23458).
T1 construct: human JAK1 (a.a. 837-1142); His tag (N); made in house; host or cells: insect cells (baculovirus)
As to the kind of experiment: In vitro JAK kinase assay (HTRF, phosphorylation of biotinylated peptide). Type of assay: biochemical. As to conditions: measured at 1 mM ATP. The protocol: The compound of Formula I was tested for inhibitory activity of JAK targets according to the following in vitro assay described in Park et al., Analytical Biochemistry 1999, 269, 94-104. The catalytic domains of human JAK1 (a.a. 837-1142) and JAK2 (a.a. 828-1132) with an N-terminal His tag were expressed using baculovirus in insect cells and purified. The catalytic activity of JAK1 and JAK2 was assayed by measuring the phosphorylation of a biotinylated peptide. The phosphorylated peptide was detected by homogenous time resolved fluorescence (HTRF). IC50s of compounds were measured for each kinase in the 40 micro L reactions that contain the enzyme, ATP and 500 nM peptide in 50 mM Tris (pH 7.8) buffer with 100 mM NaCl, 5 mM DTT, and 0.1 mg/mL (0.01%) BSA. For the 1 mM IC50 measurements, ATP concentration in the reactions was 1 mM. Reactions were carried out at room temperature for 1 hr and then stopped with 20 μL 45 mM EDTA, 300 nM SA-APC, 6 nM Eu-Py20 in assay buffer (Perkin Elmer, Boston, Mass.). Binding to the Europium labeled antibody took place for 40 minutes and HTRF signal was measured on a Fusion plate reader (Perkin Elmer, Boston, Mass.).
For orientation: Time-resolved FRET reads energy transfer from a long-lived donor to a nearby acceptor.

T1 sequence (P23458 849-1154): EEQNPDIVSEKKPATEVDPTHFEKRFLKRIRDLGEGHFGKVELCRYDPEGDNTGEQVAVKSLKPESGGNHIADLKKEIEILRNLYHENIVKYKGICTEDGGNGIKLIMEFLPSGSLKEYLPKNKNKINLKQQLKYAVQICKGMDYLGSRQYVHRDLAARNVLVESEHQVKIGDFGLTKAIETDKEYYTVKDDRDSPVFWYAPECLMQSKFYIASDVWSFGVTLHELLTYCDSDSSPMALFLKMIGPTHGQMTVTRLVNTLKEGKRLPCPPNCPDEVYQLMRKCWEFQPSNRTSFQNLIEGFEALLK

On to `N#CCC1(n2cc(-c3ncnc4[nH]ccc34)cn2)CN(C2CCN(C(=O)c3ccnc(C(F)(F)F)c3F)CC2)C1` [Formula I, {1-{1-[3-fluoro-2-(trifluoromethyl)isonicotinoyl]piperidin-4-yl}-3-[4-(7H-pyrrolo[2,3-d]pyrimidin-4-yl)-1H-pyrazol-1-yl]azetidin-3-yl}acetonitrile], for which the IC50 was less than 5 nM.
